Laboratory results from patent US8436015B2, “Glucagon receptor antagonist compounds, compositions containing such compounds and methods of use” (Merck Sharp & Dohme Corp., priority 2008, dated 2013).

target: T1, human glucagon receptor (Homo sapiens, UniProt P47871); test: Glucagon Receptor Binding Assay; conditions: more active isomer of indicated compounds; 125I-glucagon displacement, membranes of CHO cells expressing cloned human glucagon receptor
T1 construct: expressed in transfected cells; cell membranes used
Description: A stable CHO (Chinese hamster ovary) cell line expressing cloned human glucagon receptor was maintained as described (Chicchi et al. J Biol Chem 272, 7765-9 (1997); Cascieri et al. J Biol Chem 274, 8694-7 (1999)). […] After 4-12 hours incubation at room temperature, the radioactivity bound to the cell membranes was determined in a radioactive emission detection counter (Wallac-Microbeta). Data was analyzed using the software program Prism from GraphPad. The IC50 values were calculated using non-linear regression analysis assuming single site competition.

T1 sequence (P47871 26-477): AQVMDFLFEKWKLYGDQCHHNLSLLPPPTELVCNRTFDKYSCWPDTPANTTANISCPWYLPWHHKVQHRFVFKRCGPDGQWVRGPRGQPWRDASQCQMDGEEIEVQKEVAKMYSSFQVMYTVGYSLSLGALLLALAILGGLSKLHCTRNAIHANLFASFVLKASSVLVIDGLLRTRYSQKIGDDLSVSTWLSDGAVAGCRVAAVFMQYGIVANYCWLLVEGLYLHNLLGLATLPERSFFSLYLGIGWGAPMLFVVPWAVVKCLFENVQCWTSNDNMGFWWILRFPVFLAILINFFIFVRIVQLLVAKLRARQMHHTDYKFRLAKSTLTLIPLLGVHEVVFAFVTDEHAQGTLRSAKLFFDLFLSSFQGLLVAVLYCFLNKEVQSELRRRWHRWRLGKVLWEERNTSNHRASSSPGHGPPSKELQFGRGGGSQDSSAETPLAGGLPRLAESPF

SMILES | IC50 [nM]
CCCC(c1ccc(C(=O)NCCC(=O)O)cc1)C(c1ccc(Cl)cc1)c1ccnc2cc(C)c(Cl)cc12 (stereo not drawn) [Example 50] | 0.5
CCCC(c1ccc(C(=O)NCCC(=O)O)cc1)C(c1ccc(OC(F)(F)F)cc1)c1ccnc2cc(F)ccc12 (stereo not drawn) [Example 62] | 0.2
CCCC(c1ccc(C(=O)NCCC(=O)O)cc1)C(c1ccc(Cl)cc1)c1nc(CC)c2cc(OC)ccc2n1 (single isomer, unassigned) [Example 174, N-(4-{1-[(4-Chlorophenyl)(4-Ethyl-6-Methoxyquinazolin-2-Yl)Methyl]Butyl}Benzoyl)-β-Alanine] | 1.7
CCCC(c1ccc(C(=O)NCCC(=O)O)cc1)C(c1ccc(Cl)cc1)c1ccnc2c(Cl)cc(OC)cc12 (stereo not drawn) [Example 10] | 0.6
CCC[C@H](c1ccc(C(=O)NCCC(=O)O)cc1)C(c1ccc(Cl)cc1)c1ccnc2c(C)cc(Cl)cc12 (single isomer, unassigned) [Example 1] | 1
O=C(O)CCNC(=O)c1ccc(C(CCC(F)(F)F)C(c2ccc(Cl)cc2)c2ccnc3cc(Cl)ccc23)cc1 (stereo not drawn) [Example 55] | 0.2
CCCC(c1ccc(C(=O)NCCC(=O)O)cc1)C(c1ccc(Cl)cc1)c1ccnc2c(C)cc(OC(F)(F)F)cc12 (stereo not drawn) [Example 52] | 1.1
CCC[C@H](c1ccc(C(=O)NCCC(=O)O)cc1)C(c1ccc(Cl)cc1)c1ccnc2cc(F)c(F)cc12 (single isomer, unassigned) [Example 157] | 0.3
CCCC(c1ccc(C(=O)NCCC(=O)O)cc1)C(c1ccc(Cl)cc1)c1cccc2nc(OCCOC)ccc12 (stereo not drawn) [Example 112] | 0.9
CCCC(c1ccc(C(=O)NCCC(=O)O)cc1)C(c1ccc(Cl)cc1)c1cccc2ccc(OC)nc12 (stereo not drawn) [Example 146] | 12
O=C(O)CCNC(=O)c1ccc(C(CCC(F)(F)F)C(c2ccc(Cl)cc2)c2cncc3cc(Cl)ccc23)cc1 (stereo not drawn) [Example 138] | 0.4
CCCC(c1ccc(C(=O)NCCC(=O)O)cc1)C(c1ccc(Cl)cc1)c1cc(C)nc2ccc(Cl)cc12 (stereo not drawn) [Example 23] | 1.4
CCCC(c1ccc(C(=O)NCCC(=O)O)cc1)C(c1ccc(Cl)cc1)c1nc(C2CCCCC2)c2ccc(C(F)(F)F)cc2n1 (stereo not drawn) [Example 179] | 4.5
CCCC(c1ccc(C(=O)NCCC(=O)O)cc1)C(c1ccc(Cl)cc1)c1ccnc2cc(OC(F)(F)F)ccc12 (stereo not drawn) [Example 24] | 0.1
CCC[C@H](c1ccc(C(=O)NCCC(=O)O)cc1)C(c1ccc(Cl)cc1)c1cnc2cc(C(F)(F)F)ccc2c1 (single isomer, unassigned) [Example 3] | 5
CCCC(c1ccc(C(=O)NCCC(=O)O)cc1)C(c1ccc(OC(F)(F)F)cc1)c1cncc2cc(Cl)ccc12 (stereo not drawn) [Example 139] | 0.3
CCC[C@H](c1ccc(C(=O)NCCC(=O)O)cc1)C(c1ccc(Cl)cc1)c1ncnc2c(F)cc(C)cc12 (single isomer, unassigned) [Example 173] | 1.4
CCCC(c1ccc(C(=O)NCCC(=O)O)cc1)C(c1ccc(Cl)cc1)c1cncc2c(Cl)cccc12 (stereo not drawn) [Example 131] | 0.5
CCC[C@H](c1ccc(C(=O)NCCC(=O)O)cc1)C(c1ccc(Cl)cc1)c1cccc2nc(OC)ccc12 (single isomer, unassigned) [Example 2] | 0.5

Now from value to molecule:

IC50 [nM] | SMILES
18 | CCC[C@H](c1ccc(C(=O)NCCC(=O)O)cc1)C(c1ccc(Cl)cc1)c1cccc2nc(-c3ccn[nH]3)ccc12 (stereo partly drawn) [Example 171, N-(4-{(1S)-1-[(4-Chlorophenyl)(2-(1H-Pyrazol-5-Yl)Quinolin-5-Yl)Methyl]Butyl}Benzoyl)-β-Alanine]
1.8 | CCCC(c1ccc(C(=O)NCCC(=O)O)cc1)C(c1ccc(Cl)cc1)c1ccc2nc(OC)ccc2c1 (stereo not drawn) [Example 120]
0.4 | CCCC(c1ccc(C(=O)NCCC(=O)O)cc1)C(c1ccc(Cl)cc1)c1cccc2nc(OC3CCC3)ccc12 (stereo not drawn) [Example 108]
0.5 | CCCC(c1ccc(C(=O)NCCC(=O)O)cc1)C(c1ccc(Cl)cc1)c1ccnc2cc(Cl)ccc12 (stereo not drawn) [Example 7]
0.3 | CCC(c1ccc(C(=O)NCCC(=O)O)cc1)C(c1ccc(OC(F)(F)F)cc1)c1cccc2nc(OC)ccc12 (stereo not drawn) [Example 115]
0.6 | CCCC(c1ccc(C(=O)NCCC(=O)O)cc1)C(c1cccc(Cl)c1)c1ccnc2cc(F)c(F)cc12 (stereo not drawn) [Example 159]
0.4 | CCCC(c1ccc(C(=O)NCCC(=O)O)cc1)C(c1ccc(Cl)cc1)c1cc(C)nc2cc(Cl)ccc12 (stereo not drawn) [Example 37]
0.3 | CCCC(c1ccc(C(=O)NCCC(=O)O)cc1)C(c1ccc(Cl)c(Cl)c1)c1ccnc2c(C)cc(Cl)cc12 (stereo not drawn) [Example 84]
0.2 | Cc1cc2nccc(C(c3ccc(Cl)cc3)C(CCC(F)(F)F)c3ccc(C(=O)NCCC(=O)O)cc3)c2cc1F (stereo not drawn) [Example 77]
0.8 | CCCC(c1ccc(C(=O)NCCC(=O)O)cc1)C(c1ccc(Cl)cc1)c1ccnc2c(C)cc(F)cc12 (stereo not drawn) [Example 35]
0.2 | CCCC(c1ccc(C(=O)NCCC(=O)O)cc1)C(c1ccc(Cl)cc1)c1ccnc2c(F)c(C)c(F)cc12 (stereo not drawn) [Example 72]
